PubChem BioAssay (NCI)
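The compound was tested at five concentrations on cells cultured in 96-well plates, with a 48-hour exposure period. GI50 is the concentration that inhibits growth by half. Definition used: TGI = concentration required for complete inhibition of growth.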

Columns and labels:
Assay in all cases: NCI tumour cell line growth inhibition, 48 h
EKVX NSCLC = tested on: EKVX NSCLC
IGROV1 ovarian = tested on: IGROV1 ovarian
OVCAR-3 ovarian = tested on: OVCAR-3 ovarian
OVCAR-8 ovarian = tested on: OVCAR-8 ovarian
RXF 393 renal = tested on: RXF 393 renal
SK-MEL-2 melanoma = tested on: SK-MEL-2 melanoma
SK-MEL-28 melanoma = tested on: SK-MEL-28 melanoma
SR leukemia = tested on: SR leukemia
SW-620 colon = tested on: SW-620 colon
U251 CNS = tested on: U251 CNS

Structure (SMILES)	TGI (EKVX NSCLC)	TGI (IGROV1 ovarian)	TGI (OVCAR-3 ovarian)	TGI (OVCAR-8 ovarian)	TGI (RXF 393 renal)	TGI (SK-MEL-2 melanoma)	TGI (SK-MEL-28 melanoma)	TGI (SR leukemia)	TGI (SW-620 colon)	TGI (U251 CNS)	GI50 (EKVX NSCLC)	GI50 (IGROV1 ovarian)	GI50 (OVCAR-3 ovarian)	GI50 (OVCAR-8 ovarian)	GI50 (RXF 393 renal)	GI50 (SK-MEL-2 melanoma)	GI50 (SK-MEL-28 melanoma)	GI50 (SR leukemia)	GI50 (SW-620 colon)	GI50 (U251 CNS)
NC(CSC1(c2ccc(Cl)cc2)c2ccccc2-c2ccccc21)C(=O)O (configuration not stated)	> 100 µM	29.4 µM	> 100 µM	38.7 µM	> 100 µM	41.8 µM	> 100 µM	46.9 µM	> 100 µM	29.6 µM										
O=C1CCCCCCCCCCOC(=O)CCCCCCCCCCO1	> 100 µM	> 100 µM	> 100 µM	> 100 µM	> 100 µM	> 100 µM	> 100 µM	> 100 µM	> 100 µM	> 100 µM										
CC(=O)Nc1ccc(Cc2ccc3[nH]c(=O)cc(C)c3c2)cc1	> 100 µM	> 100 µM	> 100 µM	> 100 µM	> 100 µM	77.7 µM	> 100 µM	> 100 µM	> 100 µM	> 100 µM										
C=C(C)C1CCC2(C(=O)O)CCC3(C)C(CCC4C5(C)CCC(O)C(C)(C)C5CCC43C)C12 (configuration not stated)	44.9 µM	28.7 µM	7.98 µM	20.7 µM	5.99 µM	32.2 µM	41.8 µM	27.6 µM	51.5 µM	22 µM										
C[C@H]1CCC2C(CN3CCCCC3)C(=O)OC2[C@]2(C)C(=O)CC(N3CCCCC3)C12O (some centres not stated)	16.1 µM	84.1 µM	14.7 µM		4.31 µM	90.4 µM	32.9 µM	15.8 µM	10.3 µM	24.5 µM										
COC(=O)CC1NC(=O)C1C(C)(OC)OC (configuration not stated)	> 100 µM	> 100 µM	> 100 µM	> 100 µM	> 100 µM	> 100 µM	> 100 µM	> 100 µM	> 100 µM	> 100 µM										
CNC(=O)c1cc(Oc2ccc3nc(NC(=O)Nc4cc(C(F)(F)F)cc(C(F)(F)F)c4)sc3c2)ccn1	4.56 µM	3.16 µM	2.27 µM	2.69 µM	2.99 µM	3.13 µM	2.93 µM	2.6 µM	3.29 µM	2.2 µM	1.28 µM	1.25 µM	1.03 µM	1.33 µM	1.25 µM	1.05 µM	1.29 µM	0.514 µM	1.56 µM	1.02 µM
COc1ccc2c(c1)CC1N(C)CCC13CCCCC23 (configuration not stated)	> 100 µM	> 100 µM	> 100 µM	> 100 µM	> 100 µM	> 100 µM	> 100 µM	> 100 µM		> 100 µM										
CSCC(COC(C)=O)(CSC)c1ccncc1	> 100 µM	> 100 µM	> 100 µM	> 100 µM	> 100 µM	> 100 µM	> 100 µM	> 100 µM	> 100 µM	> 100 µM										
COC(=O)C1=Cc2cn(S(=O)(=O)c3ccc(C)cc3)c3cccc(c23)C(C=C(C)C)N1C(C)=O (configuration not stated)	> 100 µM	> 100 µM	> 100 µM	> 100 µM	> 100 µM	29.5 µM		> 100 µM	> 100 µM	> 100 µM										
COc1c(OC)c(OC)c(-c2cc(=O)c3c(OC)c(OC)c(OC)c(OC)c3o2)c(OC)c1OC	> 100 µM	64.2 µM	33.5 µM	> 100 µM	81.2 µM	> 100 µM	> 100 µM	> 100 µM	> 100 µM	> 100 µM										
O=C(c1ccccc1)c1c2n(c3c1cc(O)c1ccccc13)CCN2	22.5 µM	4.84 µM	7.82 µM	7.67 µM	27.1 µM	8.55 µM	27.3 µM	3.46 µM	14.8 µM	3.4 µM	8.63 µM	2.19 µM	2.23 µM	2.7 µM	11.1 µM	3.02 µM	12.1 µM	1.06 µM	3.47 µM	1.78 µM
COC1/C=C/OC2(C)Oc3c(C)c(O)c4c(O)c(c(C=NOC(c5ccccc5)c5ccccc5)c(O)c4c3C2=O)NC(=O)/C(C)=C/C=C/C(C)C(O)C(C)C(O)C(C)C(OC(C)=O)C1C (configuration not stated)	7.67 µM	5.54 µM	2.01 µM	4.64 µM	1.74 µM	2.54 µM	2.08 µM	5.93 µM	3.72 µM	1.96 µM	1.82 µM	1.72 µM	1 µM	1.56 µM	0.943 µM	1.05 µM	0.959 µM	1.94 µM	1.35 µM	0.975 µM
[Au+].c1c[n-]cn1.c1ccc([PH+](c2ccccc2)c2ccccc2)cc1	38.2 µM	13.7 µM	5.2 µM	37.1 µM	2.66 µM	8.06 µM	6.87 µM	9.48 µM	3.28 µM	26.2 µM	11 µM	2.02 µM	2.43 µM	9.28 µM	1.3 µM	2.53 µM	2.29 µM	2.54 µM	1.81 µM	3.77 µM
COC(=O)[C@H](C)[C@@H]1CC[C@](C)(CCC2=C(C)CCCC2(C)C)OO1	> 25 µM	> 25 µM	> 25 µM	> 25 µM	> 25 µM	> 25 µM	> 25 µM	> 25 µM	> 25 µM	> 25 µM										
NCCCCCCCCCn1c2c(c3ccccc3c1=O)C(=O)c1ccccc1-2	17.3 µM	> 50 µM	18.8 µM	> 50 µM	24.3 µM	> 50 µM	23 µM	> 50 µM	15.6 µM	19.1 µM	9.16 µM	10.2 µM	9.46 µM	12.5 µM	10.2 µM	15.5 µM	9.98 µM	1.55 µM	6.11 µM	9.52 µM
CS(=O)(=O)c1ccc(-c2cnc(NCc3ccco3)n3cnnc23)cc1	> 100 µM	> 100 µM	> 100 µM	> 100 µM	> 100 µM	> 100 µM	> 100 µM	> 100 µM	> 100 µM	> 100 µM	> 100 µM	> 100 µM	> 100 µM	> 100 µM	> 100 µM	66.6 µM	25.3 µM	> 100 µM	> 100 µM	> 100 µM
